According to the NIST ThermoML archive (doi:10.1016/j.tca.2013.03.025):

Test: xn = mol fraction of the nth substance listed
Settings: 101 kPa, Liquid; for viscosity: Concentric cylinders viscometry; for mass density: Vibrating tube method

CCCCOC(=O)C(C)O (stereo not given) [butyl 2-hydroxypropanoate] + OCCCO
Settings	mass density, 308.15 K [kg/m3]	mass density, 313.15 K [kg/m3]	mass density, 318.15 K [kg/m3]	mass density, 323.15 K [kg/m3]	viscosity, 308.15 K [mPa·s]	viscosity, 313.15 K [mPa·s]	viscosity, 318.15 K [mPa·s]	viscosity, 323.15 K [mPa·s]
x1 = 0.0999	1033	1029.57	1026.13	1022.65	21.95	17.95	14.83	12.36
x1 = 0.2	1023.33	1019.65	1015.95	1012.21	16.89	13.87	11.5	9.627
x1 = 0.3001	1013.99	1010.09	1006.16	1002.2	12.93	10.69	8.916	7.519
x1 = 0.4	1006.06	1001.96	997.828	993.673	9.744	8.124	6.84	5.813
x1 = 0.4999	998.523	994.239	989.925	985.589	7.491	6.299	5.351	4.586
x1 = 0.5999	991.652	987.21	982.743	978.248	5.805	4.926	4.221	3.65
x1 = 0.6996	985.382	980.794	976.184	971.548	4.581	3.922	3.391	2.958
x1 = 0.8001	979.183	974.453	969.697	964.924	3.667	3.171	2.768	2.435
x1 = 0.9	973.522	968.668	963.791	958.899	2.929	2.558	2.253	2.002
x1 = 1	967.567	962.603	957.624	952.631	2.481	2.181	1.935	1.728
